System: drug resistant clinical M. tuberculosis isolates
Type: cell-based, Mycobacterium tuberculosis
Parameters: unit not given beside the values
Details: 29 clinical isolates, 18 MDR and 5 XDR

SMILES	MIC range
CN[C@@H]1[C@H](O)[C@H](NC)[C@H]2O[C@]3(O)[C@H](O[C@@H]2[C@H]1O)O[C@H](C)C[C@H]3NC(=O)Cc1ccc(O)cn1.Cl.Cl.Cl [Compound 39, 3′-Dihydro-3′-deoxy-3′(R)-(5-hydroxypyridin-2-yl)acetylamino spectinomycin trihydrochloride]	1.56–3.13
Br.Br.Br.CN[C@@H]1[C@H](O)[C@H](NC)[C@H]2O[C@]3(O)[C@H](O[C@@H]2[C@H]1O)O[C@H](C)C[C@H]3NC(=O)Cc1cc(Cl)c(F)cn1 [Compound 49, 3′-Dihydro-3′-deoxy-3′(R)-(4-chloro-5-fluoropyridin-2-yl)acetylamino spectinomycin trihydrobromide]	0.39–1.56

— article PMC5493200 (ACS infectious diseases, 2016)
